Results published in US20110160266A1, “Novel Anti-Arrhythmia Agent” (THE UAB RESEARCH FOUNDATION, priority 2008, published 2011).
“Also recorded” adds a separate entry of the source. Marks after values point to notes of the source that are not given here.

Assays:
isolated rat left atria = assay: Pharmacological activation of spontaneous tachycardic activity (STA): calcium-loading agents with or without 2-APB; settings: for ectopic activity / mechanical stability without 2-APB / effect on left atrial force of contraction: agent without 2-APB, at the concentration given; for T0.5R (time to 50% relaxation) / T0.9R (time to 90% relaxation) / TPT (time to peak tension) / SMA Rate: concentrations per footnote; for Force Post: mg force per g atrial wet weight following a 10 min exposure to the agent; for Force Pre: mg force per g atrial wet weight prior to exposure to the agent; for SMA Rate: spontaneous atrial mechanical events
Description: Male Sprague-Dawley rats (325-400 g) were anesthetized with intra-peritoneal pentobarbital (0.1 g/kg). Their right and left atria were isolated, superfused at 30° C. in Krebs-Henseleit buffer, and nearly isometric forces of contraction were measured from these muscles (Wolkowicz et al., 2002). 2-APB was prepared as a 150 mM dimethyl sulfoxide stock.
Left atria (n=8 per group) were paced at 3 Hz and (i) titrated with 0 to 30 nM isoproterenol (Ahlquist, 1970) or (ii) exposed to 3 μM forskolin (Laurenza et al., 1980). Left atrial force and frequency of contraction, the time to peak tension and relaxation times were recorded after a 3-5 min exposure to forskolin or to any concentration of isoproterenol. The 3 Hz pacing stimulus was interrupted at the end of these protocols to measure SMA. […]
Left atrial contraction and relaxation times were recorded at these five times, the pacing stimulus was stopped and rates of SMA were recorded. […] Atrial mechanical function was measured at these four times; the pacing stimulus then was stopped and rates of SMA were recorded.
Left atria (n=6 per group) were paced at 3 Hz, titrated with 0 to 300 nM (−)BayK 8644 ([…]-1,4-Dihydro-2,6-dimethyl-5-nitro-4-[2-(trifluormethyl)phenyl]-3-pyridinecarboxylic acid methyl ester; Franckowiak et al. 1985) or FPL-64176 (2,5-Dimethyl-4-[2-(phenylmethyl)benzoyl]-1H-pyrrole-3-carboxlic acid methyl ester); Zheng et al., 1991) and their mechanical function and rates of SMA were recorded after a 5 min exposure to any concentration of slow calcium channel activator.
Atrial mechanical function was recorded at this time; the pacing stimulus then was stopped and rates of SMA were recorded. […]
Left atria (n=7) were paced at 3 Hz, treated with 120 μM ouabain (Illanes and Marshall, 1964), and any change in mechanical function was recorded at a new steady state, ˜10 min later. […]

rat left atria [1] = assay: Reversal or prevention of 2-APB-induced SMA in superfused rat left atria; settings: for effect on 2-APB-induced sporadic ectopic activity (SMA): titration after appearance of SMA, absence of pacing
Description: (A) Titration curve of ranolazine reversal of SMA in superfused left atrial appendage. Superfused appendages (n=7) were treated with 2-APB and following the appearance of SMA they were titrated with increasing concentrations of ranolazine for 3-5 min at any concentration. Rates of SMA in the absence of pacing were recorded. (B) Typical raw mechanical data for an appendage treated with 2-APB and then with 0, 10 or 80 μM ranolazine. All data are in the absence of pacing. […]
To test whether an anion transport inhibitor affected SMA, atria (n=7) were paced at 0.1 Hz in KH and exposed to 15 μM 2-APB. Following the appearance of SMA, they were titrated with 100 to 400 μM DIDS for 3 to 5 min at each concentration. Whether SMA occurred at the end of each titration period was recorded.
In these experiments, a 2-APB model system was used to simulate abnormal automaticity. Specifically, paced (0.1 Hz) superfused left atria were treated with 2-APB (20 μM) and the pacing stimulus was stopped after the appearance of SMA. SKF-96365 (25 μM) was then added to the superfusate and the effect on SMA was measured.
(§1) Additional experiments determined the concentration-dependence of SKF-96365 inhibtion of SMA. These experiments were performed as described above except that various concentrations of SKF-96365 were added to the left atrial superfusate (about 10-65 μM).
In these experiments, a 2-APB model system was used to simulate abnormal automaticity. Specifically, superfused left atria were exposed to 0 or to 50 μM SKF-96365 for 10 min. Following this pre-incubation, muscles were titrated with increasing concentrations of 2-APB (0-30 μM) and the rate of SMA was measured about 10 min later in the absence of pacing.

rat right atria = assay: Right atrial spontaneous contraction frequency
Description: (§2) Left atria (n=9) were paced at 0.1 Hz, treated with 300 nM BayK 8644 for 5 min, then with 20 μM 2-APB for 10 min, and the pacing stimulus was stopped. These preparations then were incubated with six increasing concentrations of zatebradine (10-100 μM) for 3-5 min at each concentration, and rates of SMA were recorded. Untreated right atria (n=9) also were titrated with zatebradine and its effect on contraction frequency was recorded.
(§3) To test whether zatebradine affects the SMA occurring in the presence of 2-APB and isoproterenol, left atria (n=7) were paced at 0.1 Hz, treated with 30 nM isoproterenol for 5 min, then with 20 μM 2-APB for 10 min, and the pacing stimulus was stopped. Rates of SMA were recorded, these left atria were exposed to 70 μM zatebradine for 10 min, and rates of SMA were recorded again. A group of right atria (n=7) also were exposed to 30 nM isoproterenol for 5 min and then to 70 μM zatebradine for 10 min. Right atrial contraction frequency was recorded at these two times.
(§4) To test whether ZD-7288, an If inhibitor structurally unrelated to zatebradine (Baruscotti et al., 2005; Sanders et al., 2006) affects the SMA occurring in the presence of 2-APB and BayK 8644, rat left atria (n=7) were treated with 300 nM BayK 8644 for 5 min, then with 20 μM 2-APB for 10 min, and the rates of ectopic activity were recorded. These atria then were incubated with six increasing concentrations of ZD-7288 (10-100 μM) for 3-5 min at each concentration, and the rates of SMA were recorded. Right atria (n=7) were titrated similarly with ZD-7288 (0-100 μM) and the change in their contraction frequency was recorded.

rat left atria [2] = assay: Suppression of STA induced by 2-APB plus BayK 8644 or isoproterenol in left atria
Description: 3 Hz-paced left atria (n=9 per group) were superfused (i) in Krebs-Henseleit alone or (ii) they were treated with 20 μM 2-APB for 10 min, (iii) with 300 nM BayK 8644 for 10 min and with 20 μM 2-APB for 10 min, or (iv) they were treated with 300 nM BayK 8644 and 20 μM 2-APB for 10 min, then with 70 μM zatebradine (3-[3-[[2-(3,4-Dimethoxyphenyl)ethyl]methyl amino]propyl]-1,3,4,5-tetrahydro-7,8,-dimethoxy-2H-3-benzazepin-2-one hydrochloride) for 10 min (Baruscotti et al., 2005). Pacing was interrupted at these times and rates of SMA were recorded.
as §2
To test whether zatebradine affects left atrial force of contraction, two groups of left atria (n=9 per group) were paced at 3 Hz and treated with 300 nM BayK 8644. Five minutes later one group was incubated with six increasing concentrations of zatebradine (10-100 μM) for 3-5 min at each concentration, and forces of contraction were recorded. A second group was treated with BayK 8644 but not zatebradine, and forces of contraction were recorded at corresponding times.
as §3, §4
In these experiments, a 2-APB model system was used to simulate tachycardic abnormal automaticity. Specifically, superfused left atria were treated sequentially with 300 nM BayK 8644, an activator of voltage-dependent calcium entry, which loads myocytes with calcium, and then with 2-APB (20 μM) to activate the putative myocyte system for abnormal automaticity. […] SKF-96365 (10 μM) was added to the superfusate. SKF-96365 reversed STA in these left atria within 2-3 min and the muscle became quiescent in the absence of pacing (FIG. 34, “Rest”).
as §1, with “inhibition” for “inhibtion”, “STA.” for “SMA.”, “10-70” for “10-65”, “μM). Exposing left atria to various concentrations of SKF-96365 reversed STA (FIG. 35).” for “μM).”

rat left atria [3] = settings: 25 nM ATX II

Molecule | ectopic activity / mechanical stability without 2-APB (isolated rat left atria) | effect on left atrial force of contraction (isolated rat left atria) | T0.5R (time to 50% relaxation) (isolated rat left atria) | T0.9R (time to 90% relaxation) (isolated rat left atria) | TPT (time to peak tension) (isolated rat left atria) | Force Post (isolated rat left atria) | Force Pre (isolated rat left atria) [mg/gww] | SMA Rate (isolated rat left atria) [SMEs per minute] | other results
COC(=O)C1=C(C)NC(C)=C([N+](=O)[O-])[C@H]1c1ccccc1C(F)(F)F [BayK 8644, (45)-1,4-Dihydro-2,6-dimethyl-5-nitro-4-[2-(trifluormethyl)phenyl]-3-pyridinecarboxylic acid methyl ester] | does not produce ectopic activity | increases their force of contraction | 35.2 msc | 73.2 msc | 54.1 msc | 83* mg/gww | 33 | 0 | –
O=S(=O)(O)c1cc(N=C=S)ccc1C=Cc1ccc(N=C=S)cc1S(=O)(=O)O [DIDS, 4,4′-diisothiocyanatostilbene-2,2′-disulfonic acid] | – | – | – | – | – | – | – | – | DIDS concentration that reversed SMA completely (rat left atria [1]; 15 μM 2-APB, 0.1 Hz, 3 to 5 min at each DIDS concentration): > 300 µM
COC(=O)c1c(C)[nH]c(C)c1C(=O)c1ccccc1Cc1ccccc1 [FPL-64176, 2,5-Dimethyl-4-[2-(phenylmethyl)benzoyl]-1H-pyrrole-3-carboxlic acid methyl ester] | does not produce ectopic activity | increases their force of contraction | 35.3 msc | 73.3 msc | 52.8 msc | 68* mg/gww | 30 | 0 | –
CCN(c1ccccc1)c1cc(NC)[n+](C)c(C)n1.[Cl-] [ZD-7288] | – | – | – | – | – | – | – | – | effect on right atrial contraction frequency (rat right atria; ZD-7288 0-100 μM): decreases right atrial contraction frequency less robustly than zatebradine; effect on STA initiated by BayK 8644 and 2-APB (rat left atria [2]; 300 nM BayK 8644 + 20 μM 2-APB, zatebradine 70 μM, ZD-7288 10-100 μM, SKF-96365 about 10-70 μM): decreases left atrial STA
O=C(NCC1CCCCN1)c1cc(OCC(F)(F)F)ccc1OCC(F)(F)F (stereo not drawn) [flecainide] | – | – | – | – | – | – | – | – | effect on 2-APB-induced sporadic ectopic activity (SMA) (rat left atria [1]): suppress this arrhythmic activity
C=C[C@@]1(C)CC(=O)[C@]2(O)[C@@]3(C)[C@@H](O)CCC(C)(C)[C@@H]3[C@H](O)[C@H](OC(C)=O)[C@@]2(C)O1 [forskolin] | – | – | 28.7^‡ msc | 58.4^‡ msc | 44.6* msc | 62* mg/gww | 21 | 0 | –
CC(C)NCC(O)c1ccc(O)c(O)c1 (stereo not drawn) [isoproterenol] | does not produce ectopic activity | increases their force of contraction | 29.3^‡ msc | 58.7^‡ msc | 45.0^‡ msc | 104* mg/gww | 31 | 0 | rate of spontaneous tachycardic activity in the absence of pacing (isolated rat left atria; 22 μM 2-APB-treated appendage plus 30 nM isoproterenol, 30° C.): ~230 contractions/min; right atrial contraction frequency (rat right atria; 30 nM isoproterenol for 5 min): 276±11.4 contractions/min
CCN(CC)CC(=O)Nc1c(C)cccc1C [lidocaine] | – | – | – | – | – | – | – | – | effect on 2-APB-induced sporadic ectopic activity (SMA) (rat left atria [1]): suppress this arrhythmic activity
C[C@@H]1O[C@@H](O[C@H]2C[C@@H](O)[C@]3(CO)[C@H]4[C@H](O)C[C@]5(C)[C@@H](C6=CC(=O)OC6)CC[C@]5(O)[C@@H]4CC[C@]3(O)C2)[C@H](O)[C@H](O)[C@H]1O [ouabain] | does not produce ectopic activity; also recorded: does not affect their mechanical stability | increases their force of contraction; also recorded: doubles their force of contraction | – | – | – | – | – | – | –
COc1ccccc1OCC(O)CN1CCN(CC(=O)Nc2c(C)cccc2C)CC1 (stereo not drawn) [ranolazine, N-(2,6-dimethylphenyl)-2-[4-[2-hydroxy-3-(2-methoxyphenoxy)propyl]piperazin-1-yl]acetamide] | – | – | – | – | – | – | – | – | effect on 2-APB-induced sporadic ectopic activity (SMA) (rat left atria [1]): prevent the sporadic ectopic activity; effect on 2-APB-induced sporadic ectopic activity (SMA) (rat left atria [1]; listed as Ranolazine): blocks ectopic activity; effect on tachycardic activity with high calcium loads (rat left atria [2]; data not shown): suppresses, but does not completely prevent
COc1ccc(CCN(C)CCCC(C#N)(c2ccc(OC)c(OC)c2)C(C)C)cc1OC (stereo not drawn) [verapamil] | – | – | – | – | – | – | – | – | triggered events after exposure to verapamil (rat left atria [3]; 10 μM verapamil for 5 min, expanded scale): continued presence of triggered events; effect on left atrial force of contraction / mechanical performance (titration) (rat left atria [3]; 1 Hz-paced, ~5 min at each concentration): markedly decreased contractile force; effect on the rate of triggered activity (titration) (rat left atria [3]; verapamil 2 to 20 μM, ~5 min at each concentration): did not affect the rate of triggered activity
Anemonia sulcata Toxin II [ATX II] | – | – | – | – | – | – | – | – | induction of triggered activity (contractile doublets) (rat left atria [3]; left atria paced at 1 Hz): triggered activity is induced
ryanodine | no STA occurs | Time-dependent decreases in force of contraction | – | – | – | – | – | – | –
